Assays:
Type in all cases: biochemical
JAK3 = biological target: T1, JAK3 (Homo sapiens, UniProt P52333); assay: Z'-LYTE kinase assay, JAK3 tyrosine phosphorylation activity
T1 construct: 5 μl of catalytic domain recombinant Kinase enzyme+Tyr peptide substrate (Invitrogen, Calif.); purchased Invitrogen
Summary of the method: (§1)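 Inhibition is expressed as substrate phosphorylation relative to inhibitor-free wells, fitted with a 4-parameter logistic model for IC50. Reactions contain catalytic-domain kinase, Tyr6 peptide and ATP, run 1 h at room temperature. Development protease is added for 1 h before fluorescence readout.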

TYK2 = biological target: T2, TYK2 (Homo sapiens, UniProt P29597); assay: Z'-LYTE kinase assay, TYK2 tyrosine phosphorylation activity
T2 construct: 5 μl of catalytic domain recombinant Kinase enzyme+Tyr peptide substrate (Invitrogen, Calif.); purchased Invitrogen
T2 sequence (P29597 897-1176 limits assumed): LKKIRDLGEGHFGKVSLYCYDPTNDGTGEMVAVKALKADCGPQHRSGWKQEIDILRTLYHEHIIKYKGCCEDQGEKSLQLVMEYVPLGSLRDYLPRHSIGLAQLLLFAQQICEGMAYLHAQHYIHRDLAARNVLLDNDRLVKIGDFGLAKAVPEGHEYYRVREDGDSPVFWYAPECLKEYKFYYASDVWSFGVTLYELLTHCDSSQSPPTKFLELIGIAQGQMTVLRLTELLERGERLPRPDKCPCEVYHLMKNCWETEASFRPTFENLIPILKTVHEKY
Protocol: JAK and TYK2 tyrosine phosphorylation activity is measured using the Z′-LYTE™ Technology developed by Invitrogen Corporation (Carlsbad, Calif.). For JAK1, JAK2 and JAK3 the Z′-LYTE™ Kinase Assay Kit-Tyr6 Peptide (part number PV4122) was used. For TYK2 the Z′-LYTE™ Kinase Assay Kit-Tyr6 Peptide (part number PV3192) was used. The Z′-LYTE™ biochemical assay employs a fluorescence resonance energy transfer (FRET) coupled-enzyme format and is based on the differential sensitivity of phosphorylated and non-phosphorylated peptides to proteolitic cleavage. The assay uses a synthetic peptide substrate that is labelled with a donor fluorophore (coumarin) and an acceptor fluorophore (fluorescein) that make up a FRET pair. In the primary reaction (the Kinase Reaction), the kinase transfers the γ-phosphate of ATP to a single tyrosine residue on the substrate, while the presence of a kinase inhibitor in the primary reaction suppresses phosphorylation. In the secondary reaction (the Development Reaction), a site-specific protease (the Development Reagent) is added. The development buffer quenches the Kinase Reaction, while the protease recognizes and cleaves non-phosphorylated Z′-LYTE™ peptide substrate. Cleavage disrupts FRET between the donor and acceptor fluorophores on the non-phosphoryleted substrate, while uncleaved, phosphorylated substrate maintains FRET.
To test the ability of candidate molecules to inhibit JAK tyrosine phosphorylation activity, molecules are reconstituted in 100% DMSO and serially diluted 1:10 in polypropylene v-bottom microtiter plates. The candidate molecules are then diluted 1:25 into kinase buffer and 2.5 μl transferred into duplicate wells of a 384 well low volume black microtiter assay plate (Corning, USA). The final DMSO concentration in the assay is 1%. The kinase reaction contains 2.5 μl of a candidate molecule, 5 μl of catalytic domain recombinant Kinase enzyme+Tyr peptide substrate (Invitrogen, Calif.) and 2.5 μl ATP (Invitrogen, Calif.). The kinase reaction is allowed to procede for 1 hour at room temperature. The protease reaction is initiated by the addition of 5 μl Development Reagent (Invitrogen, Calif.). After 1 hour incubation at room temperature the fluorescence is measured using a FlexStation plate reader (Molecular Devices, Sunnyvale, Calif.). The reader settings used are as follows: Fluorescence mode, endpoint, top read, excitation 400 nm, emission 445 nm and 520 nm, Auto Cutoff 435 nm and 515 nm, PMT sensitivity high, 6 reads per well. Inhibition of JAK activity is calculated as the percent phosphorylation of substrate in the presence of inhibitor compared to the percent phosphorylation of substrate in the absence of inhibitor. IC50's were derived using Xlfit 4.3 (IDBS, UK), 4 parameter logistic model 205: Y=(A+((B−A)/(1+((C/x)^D)))).

JAK2 = biological target: T3, JAK2 (Homo sapiens, UniProt O60674); assay: Z'-LYTE kinase assay, JAK2 tyrosine phosphorylation activity
T3 construct: 5 μl of catalytic domain recombinant Kinase enzyme+Tyr peptide substrate (Invitrogen, Calif.); purchased Invitrogen
T3 sequence (O60674 849-1124 limits assumed): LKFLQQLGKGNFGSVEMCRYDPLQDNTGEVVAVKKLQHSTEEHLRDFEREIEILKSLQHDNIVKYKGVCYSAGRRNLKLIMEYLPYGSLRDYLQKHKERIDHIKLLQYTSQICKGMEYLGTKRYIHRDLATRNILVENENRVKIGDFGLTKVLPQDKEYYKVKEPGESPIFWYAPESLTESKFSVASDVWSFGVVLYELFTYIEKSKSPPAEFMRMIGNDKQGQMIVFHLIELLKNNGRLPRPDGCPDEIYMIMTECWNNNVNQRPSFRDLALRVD
Summary of the method: as §1

JAK1 = biological target: T4, JAK1 (Homo sapiens, UniProt P23458); assay: Z'-LYTE kinase assay, JAK1 tyrosine phosphorylation activity; conditions: read-out: JAK 1 IC50
T4 construct: 5 μl of catalytic domain recombinant Kinase enzyme+Tyr peptide substrate (Invitrogen, Calif.); purchased Invitrogen
T4 sequence (P23458 875-1153 limits assumed): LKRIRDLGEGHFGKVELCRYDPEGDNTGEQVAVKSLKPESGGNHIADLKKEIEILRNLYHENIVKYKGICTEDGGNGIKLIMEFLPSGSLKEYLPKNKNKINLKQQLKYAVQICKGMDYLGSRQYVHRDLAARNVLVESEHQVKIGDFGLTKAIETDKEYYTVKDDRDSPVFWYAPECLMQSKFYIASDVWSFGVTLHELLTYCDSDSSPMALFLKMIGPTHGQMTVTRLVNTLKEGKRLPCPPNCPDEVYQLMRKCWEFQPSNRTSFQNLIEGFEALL
Summary of the method: as §1

T1 sequence (P52333 822-1111 limits assumed): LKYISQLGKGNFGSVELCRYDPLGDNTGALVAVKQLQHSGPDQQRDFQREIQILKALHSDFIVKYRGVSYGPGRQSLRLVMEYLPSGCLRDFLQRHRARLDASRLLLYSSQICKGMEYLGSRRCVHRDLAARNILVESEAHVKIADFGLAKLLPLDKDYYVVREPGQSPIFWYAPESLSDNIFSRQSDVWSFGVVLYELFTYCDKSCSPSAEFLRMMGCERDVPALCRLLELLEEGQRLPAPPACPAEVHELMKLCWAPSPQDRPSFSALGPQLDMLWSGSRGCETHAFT

Row | IC50 (JAK3) | IC50 (TYK2) | IC50 (JAK2) | IC50 (JAK1) | Structure (SMILES)
1 | 1 to 10 nM | 100 to 1000 nM | 100 to 1000 nM | 100 to 1000 nM | CC(=O)Nc1cccc(Nc2cc(NCc3cccc(F)c3F)c(C(N)=O)cn2)c1 [Example 336, 6-(3-acetamidophenylamino)-4-(2,3-difluorobenzylamino)nicotinamide]
2 | 1 to 10 nM | 1 to 10 nM | 10 to 100 nM | 10 to 100 nM | CCn1ccc2c(Nc3nc(Nc4cccc(NC(C)=O)c4)ncc3C(N)=O)cccc21 [Example 185, 2-(3-acetamidophenylamino)-4-(1-ethyl-1H-indol-4-ylamino)pyrimidine-5-carboxamide]
3 | 1 to 10 nM | 10 to 100 nM | 1 to 10 nM | 10 to 100 nM | C[C@@H](Nc1nc(Nc2cccc(NC(=O)N3CCN(C)CC3)c2)ncc1C(N)=O)c1ccccc1 [Example 254, (R)-2-(3-(4-methylpiperazine-1-carboxamido)phenylamino)-4-(1-phenylethylamino)pyrimidine-5-carboxamide]
4 | 1 to 10 nM | 10 to 100 nM | 10 to 100 nM | 10 to 100 nM | CC(=O)Nc1cccc(Nc2ncc(C(N)=O)c(NCc3cccc(F)c3)n2)c1 [Example 94, 2-(3-acetamidophenylamino)-4-(3-fluorobenzylamino)pyrimidine-5-carboxamide]
5 | 1 to 10 nM | 1 to 10 nM | 10 to 100 nM | 10 to 100 nM | CC(C)[C@@H](C)Nc1nc(Nc2ccc(Cl)c(NC(=O)N3CCCC3)c2)ncc1C(N)=O [Example 253, (R)-2-(4-chloro-3-(pyrrolidine-1-carboxamido)phenylamino)-4-(3-methylbutan-2-ylamino)pyrimidine-5-carboxamide]
6 | 10 to 100 nM | 100 to 1000 nM | 10 to 100 nM | 100 to 1000 nM | CN(C(=O)N1CCCC1)c1cccc(Nc2ncc(C(N)=O)c(NCC3CC3)n2)c1 [Example 127, 4-(cyclopropylmethylamino)-2-(3-(N-methylpyrrolidine-1-carboxamido)phenylamino)pyrimidine-5-carboxamide]
7 | 1 to 10 nM | 10 to 100 nM | 10 to 100 nM | 100 to 1000 nM | COC[C@@H]1CCCN1C(=O)Nc1cccc(Nc2ncc(C(N)=O)c(N[C@H](C)c3ccccc3)n2)c1 [Example 138, 2-(3-((S)-2-(methoxymethyl)pyrrolidine-1-carboxamido)phenylamino)-4-((R)-1-phenylethylamino)pyrimidine-5-carboxamide]
8 | < 1 nM | 1 to 10 nM | 1 to 10 nM | 10 to 100 nM | CCC(C)CNc1nc(Nc2cccc(NC(C)=O)c2)ncc1C(N)=O (stereo not shown) [Example 249, 2-(3-acetamidophenylamino)-4-(2-methylbutylamino)pyrimidine-5-carboxamide]
9 | 100 to 1000 nM | 100 to 1000 nM | > 1000 nM | > 1000 nM | C[C@@H](Nc1nc(Nc2ccc(Cl)c(NC(=O)NC3CCC3)c2)ncc1C(N)=O)c1ccccc1 [Example 111, (R)-2-(4-chloro-3-(3-cyclobutylureido)phenylamino)-4-(1-phenylethylamino)pyrimidine-5-carboxamide]
10 | 10 to 100 nM | 10 to 100 nM | 10 to 100 nM | 100 to 1000 nM | CC(=O)Nc1cccc(Nc2ncc(C(N)=O)c(NCc3ccc4c(c3)OCO4)n2)c1 [Example 99, 2-(3-acetamidophenylamino)-4-(benzo[d][1,3]dioxol-5-ylmethylamino)pyrimidine-5-carboxamide]
11 | 10 to 100 nM | 10 to 100 nM | 10 to 100 nM | 100 to 1000 nM | COCC(=O)Nc1cccc(Nc2ncc(C(N)=O)c(NCc3ccc(F)cc3)n2)c1 [Example 104, 4-(4-fluorobenzylamino)-2-(3-(2-methoxyacetamido)phenylamino)pyrimidine-5-carboxamide]
12 | 1 to 10 nM | 10 to 100 nM | 10 to 100 nM | 100 to 1000 nM | NC(=O)c1cnc(Nc2ccc(N3CCCC3)c(NC(=O)N3CCCC3)c2)nc1NCc1ccccc1 [Example 159, 4-(benzylamino)-2-(4-(pyrrolidin-1-yl)-3-(pyrrolidine-1-carboxamido)phenylamino)pyrimidine-5-carboxamide]
13 | 10 to 100 nM | 10 to 100 nM | 100 to 1000 nM | 100 to 1000 nM | CC(=O)Nc1cccc(Nc2cc(NCC(C)C)c(C(N)=O)cn2)c1 [Example 323, 6-(3-acetamidophenylamino)-4-(isobutylamino)nicotinamide]
14 | 1 to 10 nM | 10 to 100 nM | 10 to 100 nM | 10 to 100 nM | NC(=O)c1cnc(Nc2cccc(NC(=O)N3CCCC3)c2)nc1NCc1cccc(Cl)c1 [Example 180, 4-(3-chlorobenzylamino)-2-(3-(pyrrolidine-1-carboxamido)phenylamino)pyrimidine-5-carboxamide]
15 | 1 to 10 nM | 10 to 100 nM | 10 to 100 nM | 10 to 100 nM | C[C@@H](Nc1nc(Nc2cccc(NC(=O)N3CCC(O)CC3)c2)ncc1C(N)=O)c1ccccc1 [Example 215]
16 | 1 to 10 nM | 10 to 100 nM | 10 to 100 nM | 100 to 1000 nM | C[C@@H]1CCCN1C(=O)Nc1cccc(Nc2ncc(C(N)=O)c(N[C@H](C)c3ccccc3)n2)c1 [Example 148, 2-(3-((R)-2-methylpyrrolidine-1-carboxamido)phenylamino)-4-((R)-1-phenylethylamino)pyrimidine-5-carboxamide]
17 | 1 to 10 nM | 10 to 100 nM | 10 to 100 nM | 10 to 100 nM | CC(=O)Nc1cccc(Nc2ncc(C(N)=O)c(NCC3CCCN(C(=O)Nc4ccc(F)cc4)C3)n2)c1 (stereo not shown) [Example 118, 2-(3-acetamidophenylamino)-4-((1-(4-fluorophenylcarbamoyl)piperidin-3-yl)methylamino)pyrimidine-5-carboxamide]
18 | 1 to 10 nM | 1 to 10 nM | 1 to 10 nM | 10 to 100 nM | NC(=O)c1cnc(Nc2cccc(NC(=O)N3CCOCC3)c2)nc1NCc1cccc(F)c1 [Example 259]
19 | 1 to 10 nM | 10 to 100 nM | 1 to 10 nM | 10 to 100 nM | CC(=O)Nc1cc(Nc2ncc(C(N)=O)c(Nc3cccc4c3cnn4C)n2)ccc1OCCN1CCCC1 [Example 256, 2-(3-acetamido-4-(2-(pyrrolidin-1-yl)ethoxy)phenylamino)-4-(1-methyl-1H-indazol-4-ylamino)pyrimidine-5-carboxamide]
20 | 10 to 100 nM | 10 to 100 nM | 100 to 1000 nM | 100 to 1000 nM | CC[C@H](C)Nc1nc(Nc2ccc(Cl)c(NC(=O)NC)c2)ncc1C(N)=O [Example 175, (S)-4-(sec-butylamino)-2-(4-chloro-3-(3-methylureido)phenylamino)pyrimidine-5-carboxamide]
21 | 1 to 10 nM | 1 to 10 nM | 10 to 100 nM | 10 to 100 nM | COCC(=O)Nc1cccc(Nc2ncc(C(N)=O)c(NCC3CC3)n2)c1 [Example 124, 4-(cyclopropylmethylamino)-2-(3-(2-methoxyacetamido)phenylamino)pyrimidine-5-carboxamide]
22 | 10 to 100 nM | 10 to 100 nM | 100 to 1000 nM | 100 to 1000 nM | CNc1nc(Nc2cccc(NC(=O)N3CCCC3)c2)ncc1C(N)=O [Example 133, 4-(methylamino)-2-(3-(pyrrolidine-1-carboxamido)phenylamino)pyrimidine-5-carboxamide]

Source: patent publication US8853230B2, “Inhibitors of JAK” (Portola Pharmaceuticals, Inc., priority 2009, dated 2014)
